Drawing on ChEMBL document CHEMBL3228014, “Preparation of the enantiomeric forms of 9-(5-deoxy-alpha-threo-pent-4-enofuranosyl)adenine and 9-(3,5-dideoxy-beta-D-glycero-pent-4-enofuranosyl)adenine and in vitro antileukemic screening” (1979), this text covers inhibition for five compounds.

This assay relates to L1210. The assay is described as follows: Antiproliferative activity against mouse L1210 cells assessed as growth inhibition at 50 uM. The class given is functional.

SMILES strings stand for the structures. The source made the active and inactive calls. The calls are words filed in the database; no cut-off is given here.

For the compound `C=C1C[C@@H](O)[C@H](n2cnc3c(N)ncnc32)O1`, the inhibition at 50 µM is 50%.
With `C=C1O[C@@H](n2cnc3c(N)ncnc32)CC1O` (single isomer, unassigned), the inhibition result is “inactive”.
As for `C=C1O[C@@H](n2cnc3c(N)ncnc32)[C@H](O)[C@H]1O`, the inhibition result was “inactive”.
Same read-out and setting: with `C=C1O[C@H](n2cnc3c(N)ncnc32)[C@H](O)[C@H]1O` the entry was “inactive”.
The same measure, in the same setting: with `C=C1O[C@H](n2cnc3c(N)ncnc32)[C@@H](O)[C@@H]1O` the entry was “inactive”.
